Reference: the NIST ThermoML archive (doi:10.1016/j.fluid.2005.06.010)

Experiment: xn = mol fraction of the nth substance listed
Details: Fluid (supercritical or subcritical phases), Vibrating tube method

c1ccc2ccccc2c1 [naphthalene] + O=C=O
Details	mass density [kg/m3]
323.07 K, 21967 kPa, x1 = 0.0049	814.97
323.07 K, 21991 kPa, x1 = 0.0235	840.23
323.07 K, 22035 kPa, x1 = 0.0093	823.39
323.07 K, 22055 kPa, x1 = 0.0144	828.6
323.07 K, 23011 kPa, x1 = 0.0144	836.78
323.07 K, 23014 kPa, x1 = 0.0049	824.8
323.07 K, 23024 kPa, x1 = 0.0235	848.46
323.07 K, 23037 kPa, x1 = 0.0093	832.27
323.07 K, 23975 kPa, x1 = 0.0144	844.56
323.07 K, 24012 kPa, x1 = 0.0235	855.79
323.07 K, 24013 kPa, x1 = 0.0093	840.35
323.07 K, 24015 kPa, x1 = 0.0049	833.51
323.07 K, 25007 kPa, x1 = 0.0235	862.81
323.07 K, 25048 kPa, x1 = 0.0093	848.36
323.08 K, 12879 kPa, x1 = 0.0173	702.14
323.08 K, 13019 kPa, x1 = 0.0173	705.93
323.08 K, 13536 kPa, x1 = 0.0173	719.07
323.08 K, 14042 kPa, x1 = 0.0173	730.6
323.08 K, 15088 kPa, x1 = 0.0173	750.8
323.08 K, 16012 kPa, x1 = 0.0173	766
323.08 K, 17038 kPa, x1 = 0.0173	780.79
323.08 K, 18011 kPa, x1 = 0.0173	793.15
323.08 K, 19021 kPa, x1 = 0.0173	804.74
323.08 K, 20018 kPa, x1 = 0.0173	815.17
323.08 K, 21012 kPa, x1 = 0.0173	824.64
323.08 K, 22051 kPa, x1 = 0.0173	833.83
323.08 K, 23040 kPa, x1 = 0.0173	842.05
323.08 K, 24014 kPa, x1 = 0.0173	849.58
323.08 K, 24688 kPa, x1 = 0.0173	854.56
323.11 K, 11710 kPa, x1 = 0.0065	608.68
323.11 K, 11886 kPa, x1 = 0.0065	618.53
323.11 K, 12112 kPa, x1 = 0.0065	630.1
323.11 K, 12597 kPa, x1 = 0.0065	651.76
323.11 K, 13175 kPa, x1 = 0.0065	672.88
323.11 K, 14114 kPa, x1 = 0.0065	700.29
323.11 K, 14946 kPa, x1 = 0.0065	719.89
323.11 K, 15974 kPa, x1 = 0.0065	740.17
323.11 K, 17091 kPa, x1 = 0.0065	758.86
323.11 K, 18018 kPa, x1 = 0.0065	772.31
323.11 K, 19119 kPa, x1 = 0.0065	786.49
323.11 K, 19947 kPa, x1 = 0.0065	796.13
323.11 K, 21027 kPa, x1 = 0.0065	807.77
323.11 K, 22102 kPa, x1 = 0.0065	818.31
323.11 K, 23244 kPa, x1 = 0.0065	828.6
323.11 K, 23905 kPa, x1 = 0.0065	834.23
323.11 K, 24345 kPa, x1 = 0.0065	837.73
323.13 K, 10131 kPa, x1 = 0.0038	441.7
323.13 K, 10204 kPa, x1 = 0.0038	452.21
323.13 K, 10370 kPa, x1 = 0.0038	473.73
323.13 K, 10546 kPa, x1 = 0.0038	495.19
323.13 K, 10713 kPa, x1 = 0.0038	513.93
323.13 K, 10899 kPa, x1 = 0.0038	532.86
323.13 K, 11125 kPa, x1 = 0.0038	553.43
323.13 K, 11428 kPa, x1 = 0.0038	577.02
323.13 K, 11636 kPa, x1 = 0.0038	591
323.13 K, 11975 kPa, x1 = 0.0038	610.86
323.13 K, 12255 kPa, x1 = 0.0038	625.25
323.13 K, 12628 kPa, x1 = 0.0038	641.9
323.13 K, 13011 kPa, x1 = 0.0038	656.88
323.13 K, 13569 kPa, x1 = 0.0038	675.56
323.13 K, 14021 kPa, x1 = 0.0038	688.77
323.13 K, 15003 kPa, x1 = 0.0038	713.06
323.13 K, 16030 kPa, x1 = 0.0038	733.89
323.13 K, 17020 kPa, x1 = 0.0038	750.95
323.13 K, 18020 kPa, x1 = 0.0038	766.06
323.13 K, 19025 kPa, x1 = 0.0038	779.54
323.13 K, 20018 kPa, x1 = 0.0038	791.52
323.13 K, 21018 kPa, x1 = 0.0038	802.54
323.13 K, 22016 kPa, x1 = 0.0038	812.65
323.13 K, 23026 kPa, x1 = 0.0038	822.13
323.13 K, 24020 kPa, x1 = 0.0038	830.83
323.13 K, 25003 kPa, x1 = 0.0038	838.9
327.94 K, 14128 kPa, x1 = 0.0198	700.18
327.94 K, 15025 kPa, x1 = 0.0198	721
327.94 K, 15984 kPa, x1 = 0.0198	739.45
327.94 K, 17037 kPa, x1 = 0.0198	756.72
327.94 K, 18024 kPa, x1 = 0.0198	770.78
327.94 K, 18966 kPa, x1 = 0.0198	782.81
327.94 K, 20021 kPa, x1 = 0.0198	794.93
327.94 K, 21050 kPa, x1 = 0.0198	805.66
327.94 K, 22039 kPa, x1 = 0.0198	815.2
327.94 K, 22982 kPa, x1 = 0.0198	823.62
327.94 K, 24044 kPa, x1 = 0.0198	832.44
327.94 K, 25048 kPa, x1 = 0.0198	840.3
327.98 K, 20991 kPa, x1 = 0.0276	810.47
327.98 K, 22012 kPa, x1 = 0.0276	819.85
327.98 K, 23092 kPa, x1 = 0.0276	829.12
327.98 K, 23996 kPa, x1 = 0.0276	836.33
327.98 K, 24882 kPa, x1 = 0.0276	843.08
327.99 K, 11253 kPa, x1 = 0.0049	476.13
327.99 K, 11541 kPa, x1 = 0.0049	502.2
327.99 K, 12000 kPa, x1 = 0.0049	538.29
327.99 K, 13016 kPa, x1 = 0.0049	598.5
327.99 K, 14020 kPa, x1 = 0.0049	639.93
327.99 K, 15009 kPa, x1 = 0.0049	671.01
327.99 K, 16051 kPa, x1 = 0.0049	696.96
327.99 K, 16996 kPa, x1 = 0.0049	716.42
327.99 K, 18024 kPa, x1 = 0.0049	734.62
327.99 K, 18955 kPa, x1 = 0.0394	812.97
327.99 K, 19015 kPa, x1 = 0.0049	750.05
327.99 K, 19491 kPa, x1 = 0.0394	818.42
327.99 K, 20015 kPa, x1 = 0.0394	823.07
327.99 K, 20048 kPa, x1 = 0.0049	764.24
327.99 K, 20960 kPa, x1 = 0.0394	831.55
327.99 K, 21025 kPa, x1 = 0.0049	776.39
327.99 K, 22010 kPa, x1 = 0.0394	840.78
327.99 K, 22049 kPa, x1 = 0.0049	788
327.99 K, 23023 kPa, x1 = 0.0049	798.13
327.99 K, 23040 kPa, x1 = 0.0394	848.69
327.99 K, 24009 kPa, x1 = 0.0394	855.98
327.99 K, 24079 kPa, x1 = 0.0049	808.33
327.99 K, 24881 kPa, x1 = 0.0394	861.95
328 K, 12017 kPa, x1 = 0.0093	567.42
328 K, 12517 kPa, x1 = 0.0093	596.95
328 K, 12987 kPa, x1 = 0.0173	652.9
328 K, 13018 kPa, x1 = 0.0144	638.84
328 K, 13022 kPa, x1 = 0.0093	621.23
328 K, 13497 kPa, x1 = 0.0144	656.68
328 K, 13513 kPa, x1 = 0.0173	670.93
328 K, 13916 kPa, x1 = 0.0235	697.69
328 K, 14000 kPa, x1 = 0.0144	672.81
328 K, 14016 kPa, x1 = 0.0173	685.86
328 K, 14033 kPa, x1 = 0.0093	659.25
328 K, 14510 kPa, x1 = 0.0235	712.23
328 K, 14988 kPa, x1 = 0.0235	722.58
328 K, 15031 kPa, x1 = 0.0173	710.98
328 K, 15041 kPa, x1 = 0.0093	688.02
328 K, 15044 kPa, x1 = 0.0144	700.6
328 K, 16003 kPa, x1 = 0.0235	741.93
328 K, 16024 kPa, x1 = 0.0093	710.6
328 K, 16029 kPa, x1 = 0.0173	731.18
328 K, 16033 kPa, x1 = 0.0144	721.87
328 K, 17009 kPa, x1 = 0.0144	739.63
328 K, 17031 kPa, x1 = 0.0093	730
328 K, 17033 kPa, x1 = 0.0173	748.41
328 K, 17036 kPa, x1 = 0.0235	758.59
328 K, 18019 kPa, x1 = 0.0235	772.44
328 K, 18021 kPa, x1 = 0.0144	755.54
328 K, 18047 kPa, x1 = 0.0173	763.56
328 K, 18057 kPa, x1 = 0.0093	747.01
328 K, 19027 kPa, x1 = 0.0235	785.16
328 K, 19029 kPa, x1 = 0.0173	776.56
328 K, 19034 kPa, x1 = 0.0144	769.62
328 K, 19042 kPa, x1 = 0.0093	761.34
328 K, 20006 kPa, x1 = 0.0093	774.02
328 K, 20013 kPa, x1 = 0.0173	788.3
328 K, 20015 kPa, x1 = 0.0235	796.35
328 K, 20048 kPa, x1 = 0.0144	782.23
328 K, 21013 kPa, x1 = 0.0093	785.89
328 K, 21023 kPa, x1 = 0.0235	806.8
328 K, 21036 kPa, x1 = 0.0173	799.42
328 K, 21043 kPa, x1 = 0.0144	793.46
328 K, 22023 kPa, x1 = 0.0235	816.35
328 K, 22030 kPa, x1 = 0.0144	803.66
328 K, 22034 kPa, x1 = 0.0093	796.9
328 K, 22064 kPa, x1 = 0.0173	809.6
328 K, 23029 kPa, x1 = 0.0173	818.53
328 K, 23041 kPa, x1 = 0.0235	825.35
328 K, 23052 kPa, x1 = 0.0093	807.08
328 K, 23065 kPa, x1 = 0.0144	813.57
328 K, 24012 kPa, x1 = 0.0144	821.99
328 K, 24037 kPa, x1 = 0.0235	833.62
328 K, 24065 kPa, x1 = 0.0093	816.43
328 K, 24082 kPa, x1 = 0.0173	827.53
328 K, 24770 kPa, x1 = 0.0144	828.36
328 K, 24838 kPa, x1 = 0.0173	833.72
328 K, 25066 kPa, x1 = 0.0235	841.58
328 K, 25067 kPa, x1 = 0.0093	825.06
328.08 K, 11635 kPa, x1 = 0.0065	518.62
